These are literature values, as cited in US20250341511A1, “MASS-TAG LABELING OF THE CELLULAR SECRETOME” (The Governing Council of the University of Toronto, priority 2022, published 2025).

The conditions of the data set: relative to required assay concentration.

Turning to `C[Te]CCCOC(=O)NCCNC(=O)Cn1ccnc1[N+](=O)[O-]` [Telox], the “metabolic LD50” value is “close to the required assay concentration”.
